This is an account of results in patent publication US20260060252A1, “HERBICIDAL COMBINATIONS” (UPL LTD, priority 2018, published 2026).

Assay type in all cases: in vivo
Common to all, as to details: clomazone 32, metribuzin 12, sulfentrazone 7.7 Fl oz/A, combination 32 + 7.7 + 12 Fl oz/A

The subject of one assay is Greenfox tail. The assay can be described thus: % control of Greenfox tail in Soybean.
A further assay deals with Palmer amaranth. Nature of the assay: % control of Palmer amaranth in Soybean.
A further assay deals with Tall morning glory. The assay can be described thus: % control of Tall morning glory in Soybean.

Regarding `CC1(C)CON(Cc2ccccc2Cl)C1=O` [Clomazone], the “% control of Greenfox tail in Soybean, Actual” value (shortened to “% control of Greenfox tail”) amounted to 85% in the assay on Greenfox tail (14 DAA), 56.7% in the assay on Greenfox tail (28 DAA) and 32.9% in the assay with Greenfox tail (45 DAA). In addition, the “% control of Palmer amaranth in Soybean, Actual” value (from here on “% control of Palmer amaranth”) in the assay with Palmer amaranth (14 DAA) is listed as 60%; in the assay with Palmer amaranth (28 DAA), 43.3%; in the assay on Palmer amaranth (45 DAA) it was 16.4%. Also, the “% control of Tall morning glory in Soybean, Actual” value (shortened to “% control of Tall morning glory”) was determined as 53.3% with Tall morning glory (14 DAA), 30% in the assay on Tall morning glory (28 DAA) and 13% in the assay with Tall morning glory (45 DAA).
In the case of `CSc1nnc(C(C)(C)C)c(=O)n1N` [Metribuzin, 4-amino-6-(1,1-dimethylethyl)-3-(methylthio)-1,2,4-triazin-5 (4H)-one], the “% control of Greenfox tail” value in the assay on Greenfox tail (14 DAA) is listed as 63.4%; in the assay with Greenfox tail (28 DAA) it was 39.9%; with Greenfox tail (45 DAA), 22.7%. For the same compound, the entries for the “% control of Palmer amaranth” value in the assay with Palmer amaranth (14 DAA), in the assay on Palmer amaranth (28 DAA) and in the assay on Palmer amaranth (45 DAA) were 65%, 50% and 36.1%, respectively. The “% control of Tall morning glory” value with Tall morning glory (14 DAA) was found to be 53.3%; in the assay with Tall morning glory (28 DAA) it was 39.6%; in the assay on Tall morning glory (45 DAA), 16.4%.
In the case of `Cc1nn(-c2cc(NS(C)(=O)=O)c(Cl)cc2Cl)c(=O)n1C(F)F` [Sulfentrazone, N-[2,4-dichloro-5-[4-(difluoromethyl)-4,5-dihydro-3-methyl-5-oxo-1H-1,2,4-triazol-1-yl]phenyl]-methane sulfonamide], the “% control of Greenfox tail” value with Greenfox tail (14 DAA) turned out to be 68.5%; with Greenfox tail (28 DAA), 46.6%; in the assay on Greenfox tail (45 DAA), 29.7%. The “% control of Palmer amaranth” value is on record as 80% in the assay with Palmer amaranth (14 DAA), 62% in the assay on Palmer amaranth (28 DAA) and 39.4% in the assay with Palmer amaranth (45 DAA). Moreover, the “% control of Tall morning glory” value with Tall morning glory (14 DAA) was 66.7%; with Tall morning glory (28 DAA), 42.8%; in the assay on Tall morning glory (45 DAA) it was 22.5%.
